Earlier results, collected in patent US6475716B1, “Method for preserving mammalian organs” (Biobank Co., Ltd., priority 2001, dated 2002).

Tested on: cell membranes of the heart
Settings: heart exposed to low temperature of 4° C. or ischemic injury

## OC[C@H]1O[C@H](O[C@H]2O[C@H](CO)[C@@H](O)[C@H](O)[C@H]2O)[C@H](O)[C@@H](O)[C@@H]1O [trehalose]
  protection of cell membranes of the heart: had the ability to protect cell membranes of the heart
